{"source": "patent US10045978B2", "about": "(AB SCIENCE, priority 2010, dated 2018)", "key": {"[1]": {"system": "patients with indolent forms of mastocytosis with handicap", "assay": "Example 1 phase 2a study, safety assessment"}, "[2]": {"system": "Ba/F3 cells expressing human or mouse wild-type c-Kit", "settings": "stem cell factor-induced proliferation and c-Kit tyrosine phosphorylation; cited from earlier work"}, "[3]": {"system": "patients with severe systemic mastocytosis", "assay": "Example 5 post-hoc analysis of pooled phase 2 studies", "type": "in vivo, human", "method": "A first phase 2 study was conducted in patients with indolent forms of mastocytosis with handicap and not bearing activating point mutations in the phosphotransferase domain of c-Kit such as the main mutation Asp-816-Val. A second phase 2 study was conducted in patients with mastocytosis with handicap and bearing activating point mutations in the phosphotransferase domain of c-Kit such as the main mutation Asp-816-Val.\nIn one scenario, among those systemic mastocytosis patients from these pooled studies, 28 patients met the criteria for severe handicap at baseline, as defined as having at least one handicap selected from pruritus, flushes, fatigue or depression (defined respectively as: pruritus score ≥9, flushes frequency per week ≥8, FIS ≥75, or Hamilton score ≥19) with a total of 53 severe baseline handicaps reported (note that a given patient may present with more than one handicap). Assessment of treatment response on a handicap was defined as a ≥75% improvement from baseline on at least one handicap among pruritus, flushes, fatigue or depression.\nIn an alternative scenario, among those systemic mastocytosis patients from these pooled studies, 4 patients met the criteria for severe handicap at baseline, as defined as having handicaps of both pruritus and flushes (defined respectively as: pruritus score ≥9, and flushes frequency per week ≥8) with a total of 8 severe baseline handicaps reported. Assessment of treatment response on a handicap was defined as a ≥75% improvement from baseline on at least one handicap among pruritus or flushes. Overall, at week 24 there was a response rate of 50.0%."}, "[4]": {"system": "patients with indolent mastocytosis with handicap bearing the D816V c-Kit mutation", "assay": "Example 2 phase 2a study, safety", "type": "in vivo, human"}, "[5]": {"system": "patients with indolent forms of mastocytosis with handicap", "settings": "in vivo"}, "[6]": {"settings": "from W8 to W24, listed as Masitinib"}}}
{"compound": "Cc1ccc(NC(=O)c2ccc(CN3CCN(C)CC3)cc2)cc1Nc1nc(-c2cccnc2)cs1", "note": "[masitinib, 4-(4-methylpiperazin-1-ylmethyl)-N-[4-methyl-3-(4-pyridin-3ylthiazol-2-ylamino)phenyl]benzamide]", "values": [{"measurement": "Early study discontinuation: Adverse event", "setting": "[1]; All (N = 25)", "value": "12 N, %"}, {"measurement": "incidence of skin rash", "setting": "[1]; after W12", "value": "no incidence"}, {"measurement": "At least one suspected AE", "setting": "[1]; extension phase, All (N = 17)", "value": "10 (58.8%) subjects (%)"}, {"measurement": "suspected AE: Abdominal pain", "setting": "[1]; extension phase, All (N = 17)", "value": "1 (5.9%) subjects (%)"}, {"measurement": "suspected AE: Aphthous stomatitis", "setting": "[1]; extension phase, All (N = 17)", "value": "1 (5.9%) subjects (%)"}, {"measurement": "suspected AE: Arthralgia", "setting": "[1]; extension phase, All (N = 17)", "value": "1 (5.9%) subjects (%)"}, {"measurement": "suspected AE: Blepharitis", "setting": "[1]; extension phase, All (N = 17)", "value": "1 (5.9%) subjects (%)"}, {"measurement": "suspected AE: Cytolytic hepatitis", "setting": "[1]; extension phase, All (N = 17)", "value": "1 (5.9%) subjects (%)"}, {"measurement": "suspected AE: Dermatitis psoriasiform", "setting": "[1]; extension phase, All (N = 17)", "value": "1 (5.9%) subjects (%)"}, {"measurement": "suspected AE: Eczema", "setting": "[1]; extension phase, All (N = 17)", "value": "1 (5.9%) subjects (%)"}, {"measurement": "suspected AE: Gamma-glutamyltransferase increased", "setting": "[1]; extension phase, All (N = 17)", "value": "1 (5.9%) subjects (%)"}, {"measurement": "suspected AE: Gingivitis", "setting": "[1]; extension phase, All (N = 17)", "value": "1 (5.9%) subjects (%)"}, {"measurement": "suspected AE: Muscle spasms", "setting": "[1]; extension phase, All (N = 17)", "value": "1 (5.9%) subjects (%)"}, {"measurement": "suspected AE: Vomiting", "setting": "[1]; extension phase, All (N = 17)", "value": "1 (5.9%) subjects (%)"}, {"measurement": "At least one suspected AE", "setting": "[1]; extension phase, Mild", "value": "6 (35.3%) subjects (%)"}, {"measurement": "suspected AE: Arthralgia", "setting": "[1]; extension phase, Mild", "value": "1 (5.9%) subjects (%)"}, {"measurement": "suspected AE: Blepharitis", "setting": "[1]; extension phase, Mild", "value": "1 (5.9%) subjects (%)"}, {"measurement": "suspected AE: Dermatitis psoriasiform", "setting": "[1]; extension phase, Mild", "value": "1 (5.9%) subjects (%)"}, {"measurement": "suspected AE: Edema—all categories", "setting": "[1]; extension phase, Mild", "value": "1 (5.9%) subjects (%)"}, {"measurement": "suspected AE: Gamma-glutamyltransferase increased", "setting": "[1]; extension phase, Mild", "value": "1 (5.9%) subjects (%)"}, {"measurement": "suspected AE: Gingivitis", "setting": "[1]; extension phase, Mild", "value": "1 (5.9%) subjects (%)"}, {"measurement": "suspected AE: Nausea", "setting": "[1]; extension phase, Mild", "value": "2 (11.8%) subjects (%)"}, {"measurement": "suspected AE: Nausea/Vomiting", "setting": "[1]; extension phase, Mild", "value": "2 (11.8%) subjects (%)"}, {"measurement": "At least one suspected AE", "setting": "[1]; extension phase, Moderate", "value": "5 (29.4%) subjects (%)"}, {"measurement": "suspected AE: Abdominal pain", "setting": "[1]; extension phase, Moderate", "value": "1 (5.9%) subjects (%)"}, {"measurement": "suspected AE: Cytolytic hepatitis", "setting": "[1]; extension phase, Moderate", "value": "1 (5.9%) subjects (%)"}, {"measurement": "suspected AE: Eczema", "setting": "[1]; extension phase, Moderate", "value": "1 (5.9%) subjects (%)"}, {"measurement": "suspected AE: Muscle spasms", "setting": "[1]; extension phase, Moderate", "value": "1 (5.9%) subjects (%)"}, {"measurement": "suspected AE: Nausea/Vomiting", "setting": "[1]; extension phase, Moderate", "value": "1 (5.9%) subjects (%)"}, {"measurement": "suspected AE: Vomiting", "setting": "[1]; extension phase, Moderate", "value": "1 (5.9%) subjects (%)"}, {"measurement": "At least one suspected AE", "setting": "[1]; extension phase, Severe", "value": "1 (5.9%) subjects (%)"}, {"measurement": "suspected AE: Aphthous stomatitis", "setting": "[1]; extension phase, Severe", "value": "1 (5.9%) subjects (%)"}, {"measurement": "At least one suspected AE", "setting": "[1]; initial phase, Mild", "value": "11 (44.0%) subjects (%)"}, {"measurement": "suspected AE: Abdominal pain", "setting": "[1]; initial phase, Mild", "value": "2 (8.0%) subjects (%)"}, {"measurement": "suspected AE: Diarrhea", "setting": "[1]; initial phase, Mild", "value": "1 (4.0%) subjects (%)"}, {"measurement": "suspected AE: Edema - all categories", "setting": "[1]; initial phase, Mild", "value": "3 (12.0%) subjects (%)"}, {"measurement": "suspected AE: Muscle spasms", "setting": "[1]; initial phase, Mild", "value": "1 (4.0%) subjects (%)"}, {"measurement": "suspected AE: Nausea", "setting": "[1]; initial phase, Mild", "value": "5 (20.0%) subjects (%)"}, {"measurement": "suspected AE: Nausea/Vomiting", "setting": "[1]; initial phase, Mild", "value": "6 (24.0%) subjects (%)"}, {"measurement": "suspected AE: Vomiting", "setting": "[1]; initial phase, Mild", "value": "1 (4.0%) subjects (%)"}, {"measurement": "At least one suspected AE", "setting": "[1]; initial phase, Moderate", "value": "19 (76.0%) subjects (%)"}, {"measurement": "suspected AE: Abdominal pain", "setting": "[1]; initial phase, Moderate", "value": "3 (12.0%) subjects (%)"}, {"measurement": "suspected AE: Asthaenia", "setting": "[1]; initial phase, Moderate", "value": "4 (16.0%) subjects (%)"}, {"measurement": "suspected AE: Diarrhea", "setting": "[1]; initial phase, Moderate", "value": "2 (8.0%) subjects (%)"}, {"measurement": "suspected AE: Dyspnoea", "setting": "[1]; initial phase, Moderate", "value": "3 (12.0%) subjects (%)"}, {"measurement": "suspected AE: Edema - all categories", "setting": "[1]; initial phase, Moderate", "value": "8 (32.0%) subjects (%)"}, {"measurement": "suspected AE: Eructation", "setting": "[1]; initial phase, Moderate", "value": "2 (8.0%) subjects (%)"}, {"measurement": "suspected AE: Headache", "setting": "[1]; initial phase, Moderate", "value": "5 (20.0%) subjects (%)"}, {"measurement": "suspected AE: Muscle spasms", "setting": "[1]; initial phase, Moderate", "value": "7 (28.0%) subjects (%)"}, {"measurement": "suspected AE: Nausea", "setting": "[1]; initial phase, Moderate", "value": "7 (28.0%) subjects (%)"}, {"measurement": "suspected AE: Nausea/Vomiting", "setting": "[1]; initial phase, Moderate", "value": "8 (32.0%) subjects (%)"}, {"measurement": "suspected AE: Rash - all categories", "setting": "[1]; initial phase, Moderate", "value": "6 (24.0%) subjects (%)"}, {"measurement": "suspected AE: Vomiting", "setting": "[1]; initial phase, Moderate", "value": "4 (16.0%) subjects (%)"}, {"measurement": "At least one suspected AE", "setting": "[1]; initial phase, Severe", "value": "9 (36.0%) subjects (%)"}, {"measurement": "suspected AE: Asthaenia", "setting": "[1]; initial phase, Severe", "value": "3 (12.0%) subjects (%)"}, {"measurement": "suspected AE: Diarrhea", "setting": "[1]; initial phase, Severe", "value": "1 (4.0%) subjects (%)"}, {"measurement": "suspected AE: Edema - all categories", "setting": "[1]; initial phase, Severe", "value": "2 (8.0%) subjects (%)"}, {"measurement": "suspected AE: Eructation", "setting": "[1]; initial phase, Severe", "value": "1 (4.0%) subjects (%)"}, {"measurement": "suspected AE: Muscle spasms", "setting": "[1]; initial phase, Severe", "value": "1 (4.0%) subjects (%)"}, {"measurement": "suspected AE: Nausea", "setting": "[1]; initial phase, Severe", "value": "1 (4.0%) subjects (%)"}, {"measurement": "suspected AE: Nausea/Vomiting", "setting": "[1]; initial phase, Severe", "value": "1 (4.0%) subjects (%)"}, {"measurement": "suspected AE: Rash - all categories", "setting": "[1]; initial phase, Severe", "value": "2 (8.0%) subjects (%)"}, {"measurement": "treatment-related SAEs", "setting": "[1]; one patient, two episodes of agranulocytosis at 3 mg/kg/day", "value": "Two"}, {"measurement": "patients who withdrew due to occurrence of AEs", "setting": "[1]; prior to W12, 2/25 patients", "value": 8, "unit": "%"}, {"measurement": "IC50", "setting": "[2]", "value": "0.15 ± 0.08", "unit": "µM"}, {"measurement": "Overall response ≥75%", "setting": "[3]; Week 12, at least one severe handicap at baseline (28 patients)", "value": 28.3, "unit": "%"}, {"measurement": "Overall response ≥75%", "setting": "[3]; Week 12, at least one severe handicap at baseline (28 patients), listed as Masitinib", "value": 25.0, "unit": "%"}, {"measurement": "Overall response ≥75%", "setting": "[3]; Week 24, at least one severe handicap at baseline (28 patients)", "value": 23.5, "unit": "%"}, {"measurement": "Overall response ≥75%", "setting": "[3]; Week 24, at least one severe handicap at baseline (28 patients), listed as Masitinib", "value": 23.5, "unit": "%"}, {"measurement": "Overall response ≥75%", "setting": "[3]; Week 24, severe pruritus and flushes at baseline (4 patients, 8 handicaps)", "value": 50.0}, {"measurement": "Cumulative response rate (≥75%): FIS only", "setting": "[3]; from W8 to W24", "value": 8.0, "unit": "%"}, {"measurement": "Cumulative response rate (≥75%): Flushes only", "setting": "[3]; from W8 to W24", "value": 52.8, "unit": "%"}, {"measurement": "Cumulative response rate (≥75%): Flushes or Pruritus", "setting": "[3]; from W8 to W24", "value": "approximately 40%"}, {"measurement": "Cumulative response rate (≥75%): Hamilton only", "setting": "[3]; from W8 to W24", "value": 16.7, "unit": "%"}, {"measurement": "Cumulative response rate (≥75%): Hamilton or FIS", "setting": "[3]; from W8 to W24", "value": "~10", "unit": "%"}, {"measurement": "Cumulative response rate (≥75%): Micturition frequency (pollakiuria) only", "setting": "[3]; from W8 to W24", "value": 1.8, "unit": "%"}, {"measurement": "Cumulative response rate (≥75%): Overall Response", "setting": "[3]; from W8 to W24", "value": 26.1, "unit": "%"}, {"measurement": "Cumulative response rate (≥75%): Pruritus only", "setting": "[3]; from W8 to W24", "value": 28.6, "unit": "%"}, {"measurement": "Cumulative response rate (≥75%): Stool frequency (diarrhea) only", "setting": "[3]; from W8 to W24", "value": 18.4, "unit": "%"}, {"measurement": "Cumulative response rate (≥75%): Flushes or Pruritus", "setting": "[3]; [6]", "value": 38.8, "unit": "%"}, {"measurement": "Cumulative response rate (≥75%): Hamilton or FIS", "setting": "[3]; [6]", "value": 10.3, "unit": "%"}, {"measurement": "patients with at least one adverse event suspected to be related to masitinib", "setting": "[4]; 20 patients", "value": 95, "unit": "%"}, {"measurement": "patients who discontinued treatment because of a suspected adverse event", "setting": "[4]; five patients", "value": 24, "unit": "%"}, {"measurement": "patients with suspected adverse event that led to dose reduction", "setting": "[4]; in vivo", "value": "Two"}, {"measurement": "patients with at least one serious adverse event suspected to be related to masitinib", "setting": "[4]; two patients", "value": 9, "unit": "%"}, {"measurement": "deaths during the study", "setting": "[5]", "value": "No deaths"}]}
